Measurements as given in PMC9234961 (Journal of Medicinal Chemistry, 2022).
Where two headings read alike, the source gives them in different places.

What was measured:
kinases (468) [1] = target: kinases (468) (Homo sapiens, UniProt P11362); conditions: FGFR1; 1000 nM
kinases (468) [2] = target: kinases (468) (Homo sapiens, UniProt Q15569); conditions: kinase TESK1 (Entrez TESK1); compound concentration 1000 nM
kinases (468) [3] = target: kinases (468) (Homo sapiens, UniProt Q96D53); conditions: ADCK4; 1000 nM
kinases (468) [4] = target: kinases (468) (Homo sapiens, UniProt P09619); conditions: PDGFRB; 1000 nM
kinases (468) [5] = target: kinases (468) (Homo sapiens, UniProt P29317); conditions: EPHA2; 1000 nM
kinases (468) [6] = target: kinases (468) (Homo sapiens, UniProt O75716); conditions: kinase STK16 (Entrez STK16); compound concentration 1000 nM
kinases (468) [7] = target: kinases (468) (Homo sapiens, UniProt Q9UQM7); conditions: CAMK2A; 1000 nM
kinases (468) [8] = target: kinases (468) (Homo sapiens, UniProt P07949, M918T); conditions: kinase RET(M918T) (Entrez RET); compound concentration 1000 nM
kinases (468) [9] = target: kinases (468) (Homo sapiens, UniProt Q6ZWH5); conditions: NEK10; 1000 nM
kinases (468) [10] = target: kinases (468) (Homo sapiens, UniProt P51955); conditions: NEK2; 1000 nM
kinases (468) [11] = target: kinases (468) (Homo sapiens, UniProt P49674); conditions: CSNK1E; 1000 nM
kinases (468) [12] = target: kinases (468) (Homo sapiens, UniProt Q15759); conditions: p38-beta (MAPK11); 1000 nM
kinases (468) [13] = target: kinases (468) (Homo sapiens, UniProt Q15418); conditions: compound concentration 1000 nM
kinases (468) [14] = target: kinases (468) (Homo sapiens, UniProt Q86Y07); conditions: kinase VRK2 (Entrez VRK2); compound concentration 1000 nM
kinases (468) [15] = target: kinases (468) (Homo sapiens, UniProt Q9NRH2); conditions: kinase SNRK (Entrez SNRK); compound concentration 1000 nM
kinases (468) [16] = target: kinases (468) (Homo sapiens, UniProt O75676); conditions: compound concentration 1000 nM
kinases (468) [17] = target: kinases (468) (Homo sapiens, UniProt Q9NY57); conditions: kinase YANK2 (Entrez STK32B); compound concentration 1000 nM
kinases (468) [18] = target: kinases (468) (Homo sapiens, UniProt P22607); conditions: FGFR3; 1000 nM
kinases (468) [19] = target: kinases (468) (Homo sapiens, UniProt O14733); conditions: MKK7 (MAP2K7); 1000 nM
kinases (468) [20] = target: kinases (468) (Homo sapiens, UniProt O96013); conditions: PAK4; 1000 nM
kinases (468) [21] = target: kinases (468) (Homo sapiens, UniProt O60285); conditions: ARK5 (NUAK1); 1000 nM
kinases (468) [22] = target: kinases (468) (Homo sapiens, UniProt Q6PHR2); conditions: kinase ULK3 (Entrez ULK3); compound concentration 1000 nM
kinases (468) [23] = target: kinases (468) (Homo sapiens, UniProt Q9BYP7); conditions: kinase WNK3 (Entrez WNK3); compound concentration 1000 nM
kinases (468) [24] = target: kinases (468) (Homo sapiens, UniProt P42336, H1047L); conditions: PIK3CA(H1047L); 1000 nM
kinases (468) [25] = target: kinases (468) (Homo sapiens, UniProt Q08345); conditions: DDR1; 1000 nM
kinases (468) [26] = target: kinases (468) (Homo sapiens, UniProt Q8TDR2); conditions: kinase STK35 (Entrez STK35); compound concentration 1000 nM
kinases (468) [27] = target: kinases (468) (Homo sapiens, UniProt Q15375); conditions: EPHA7; 1000 nM
kinases (468) [28] = target: kinases (468) (Homo sapiens, UniProt Q13976); conditions: PRKG1; 1000 nM
kinases (468) [29] = target: kinases (468) (Homo sapiens, UniProt Q16288); conditions: kinase TRKC (Entrez NTRK3); compound concentration 1000 nM
kinases (468) [30] = target: kinases (468) (Homo sapiens, UniProt O15264); conditions: p38-delta (MAPK13); 1000 nM
kinases (468) [31] = target: kinases (468) (Homo sapiens, UniProt Q9Y2H1); conditions: NDR2 (STK38L); 1000 nM
kinases (468) [32] = target: kinases (468) (Homo sapiens, UniProt P06239); conditions: LCK; 1000 nM
kinases (468) [33] = target: kinases (468) (Homo sapiens, UniProt P31749); conditions: AKT1; 1000 nM
Sequence of kinases (468) (Homo sapiens, UniProt P31749) (P31749 whole entry): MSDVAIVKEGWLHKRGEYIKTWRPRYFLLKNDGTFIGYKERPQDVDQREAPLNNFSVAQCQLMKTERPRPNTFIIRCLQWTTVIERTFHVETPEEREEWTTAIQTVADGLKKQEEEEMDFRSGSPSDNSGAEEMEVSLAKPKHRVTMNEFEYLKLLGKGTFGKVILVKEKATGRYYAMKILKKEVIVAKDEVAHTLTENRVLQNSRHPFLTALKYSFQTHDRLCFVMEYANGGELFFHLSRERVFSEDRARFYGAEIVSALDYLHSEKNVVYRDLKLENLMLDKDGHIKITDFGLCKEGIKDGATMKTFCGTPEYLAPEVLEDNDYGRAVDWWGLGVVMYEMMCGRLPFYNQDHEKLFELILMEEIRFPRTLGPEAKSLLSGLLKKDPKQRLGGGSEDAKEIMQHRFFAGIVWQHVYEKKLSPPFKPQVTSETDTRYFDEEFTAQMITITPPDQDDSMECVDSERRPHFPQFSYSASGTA

Sequence of kinases (468) (Homo sapiens, UniProt O75676) (O75676 whole entry): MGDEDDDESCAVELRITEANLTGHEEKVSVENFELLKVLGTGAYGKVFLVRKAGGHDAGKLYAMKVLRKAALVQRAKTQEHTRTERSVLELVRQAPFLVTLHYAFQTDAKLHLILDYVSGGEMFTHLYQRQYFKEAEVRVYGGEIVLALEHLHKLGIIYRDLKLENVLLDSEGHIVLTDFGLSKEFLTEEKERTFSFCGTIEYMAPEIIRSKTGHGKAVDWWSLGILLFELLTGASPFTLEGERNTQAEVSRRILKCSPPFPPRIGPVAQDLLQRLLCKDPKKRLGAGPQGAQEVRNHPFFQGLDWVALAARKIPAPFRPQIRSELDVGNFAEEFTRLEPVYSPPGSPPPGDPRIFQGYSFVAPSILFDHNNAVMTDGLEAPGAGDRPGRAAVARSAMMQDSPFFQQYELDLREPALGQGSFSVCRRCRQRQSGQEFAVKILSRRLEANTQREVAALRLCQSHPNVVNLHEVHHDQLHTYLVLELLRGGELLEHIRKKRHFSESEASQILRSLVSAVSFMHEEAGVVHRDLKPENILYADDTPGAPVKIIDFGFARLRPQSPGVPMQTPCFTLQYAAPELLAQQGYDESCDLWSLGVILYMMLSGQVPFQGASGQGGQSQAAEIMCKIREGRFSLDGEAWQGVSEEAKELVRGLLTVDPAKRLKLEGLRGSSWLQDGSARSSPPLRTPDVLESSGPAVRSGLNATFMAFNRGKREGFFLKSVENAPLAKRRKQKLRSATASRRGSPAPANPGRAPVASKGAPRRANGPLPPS
Sequence of kinases (468) (Homo sapiens, UniProt Q15418) (Q15418 whole entry): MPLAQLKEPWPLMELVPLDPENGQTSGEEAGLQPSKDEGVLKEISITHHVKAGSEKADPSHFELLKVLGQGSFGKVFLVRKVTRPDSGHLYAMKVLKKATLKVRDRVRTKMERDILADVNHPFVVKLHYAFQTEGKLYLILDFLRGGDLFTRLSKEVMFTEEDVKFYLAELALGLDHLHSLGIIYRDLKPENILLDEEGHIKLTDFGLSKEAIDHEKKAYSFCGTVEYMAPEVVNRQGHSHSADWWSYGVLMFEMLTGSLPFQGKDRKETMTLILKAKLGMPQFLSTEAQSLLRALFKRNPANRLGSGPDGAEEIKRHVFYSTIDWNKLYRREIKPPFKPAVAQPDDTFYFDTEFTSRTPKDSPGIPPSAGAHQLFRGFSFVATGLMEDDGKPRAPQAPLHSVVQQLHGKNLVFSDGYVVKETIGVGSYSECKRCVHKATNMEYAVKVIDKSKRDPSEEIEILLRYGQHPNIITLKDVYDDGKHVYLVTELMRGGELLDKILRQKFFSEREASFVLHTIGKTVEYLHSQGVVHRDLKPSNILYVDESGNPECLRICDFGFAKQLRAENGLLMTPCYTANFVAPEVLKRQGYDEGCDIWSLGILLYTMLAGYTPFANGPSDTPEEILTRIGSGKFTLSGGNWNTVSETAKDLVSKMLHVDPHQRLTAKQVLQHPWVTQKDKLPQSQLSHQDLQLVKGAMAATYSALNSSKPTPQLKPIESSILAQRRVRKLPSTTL
Sequence of kinases (468) (Homo sapiens, UniProt P11362) (P11362 22-822): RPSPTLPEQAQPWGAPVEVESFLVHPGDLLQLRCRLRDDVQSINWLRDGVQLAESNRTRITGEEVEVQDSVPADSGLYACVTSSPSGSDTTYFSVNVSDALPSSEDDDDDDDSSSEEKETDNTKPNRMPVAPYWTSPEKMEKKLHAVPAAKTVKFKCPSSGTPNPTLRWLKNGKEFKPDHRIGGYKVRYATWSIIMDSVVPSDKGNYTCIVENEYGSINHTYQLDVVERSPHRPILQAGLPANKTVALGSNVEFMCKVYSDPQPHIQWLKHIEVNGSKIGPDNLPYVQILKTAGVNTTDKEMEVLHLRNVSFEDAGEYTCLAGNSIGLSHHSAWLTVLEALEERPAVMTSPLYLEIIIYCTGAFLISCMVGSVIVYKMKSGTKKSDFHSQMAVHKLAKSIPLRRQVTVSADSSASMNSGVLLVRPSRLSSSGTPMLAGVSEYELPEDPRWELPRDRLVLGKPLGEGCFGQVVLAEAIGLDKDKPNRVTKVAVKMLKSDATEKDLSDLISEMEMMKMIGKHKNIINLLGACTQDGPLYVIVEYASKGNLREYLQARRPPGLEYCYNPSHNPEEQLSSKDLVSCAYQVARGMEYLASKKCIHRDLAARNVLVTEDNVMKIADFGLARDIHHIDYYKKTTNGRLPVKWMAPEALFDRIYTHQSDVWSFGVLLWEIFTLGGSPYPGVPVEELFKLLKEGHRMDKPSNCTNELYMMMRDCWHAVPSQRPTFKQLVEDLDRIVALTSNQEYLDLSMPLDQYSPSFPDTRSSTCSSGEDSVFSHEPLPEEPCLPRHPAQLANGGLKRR
Sequence of kinases (468) (Homo sapiens, UniProt Q6ZWH5) (Q6ZWH5 whole entry): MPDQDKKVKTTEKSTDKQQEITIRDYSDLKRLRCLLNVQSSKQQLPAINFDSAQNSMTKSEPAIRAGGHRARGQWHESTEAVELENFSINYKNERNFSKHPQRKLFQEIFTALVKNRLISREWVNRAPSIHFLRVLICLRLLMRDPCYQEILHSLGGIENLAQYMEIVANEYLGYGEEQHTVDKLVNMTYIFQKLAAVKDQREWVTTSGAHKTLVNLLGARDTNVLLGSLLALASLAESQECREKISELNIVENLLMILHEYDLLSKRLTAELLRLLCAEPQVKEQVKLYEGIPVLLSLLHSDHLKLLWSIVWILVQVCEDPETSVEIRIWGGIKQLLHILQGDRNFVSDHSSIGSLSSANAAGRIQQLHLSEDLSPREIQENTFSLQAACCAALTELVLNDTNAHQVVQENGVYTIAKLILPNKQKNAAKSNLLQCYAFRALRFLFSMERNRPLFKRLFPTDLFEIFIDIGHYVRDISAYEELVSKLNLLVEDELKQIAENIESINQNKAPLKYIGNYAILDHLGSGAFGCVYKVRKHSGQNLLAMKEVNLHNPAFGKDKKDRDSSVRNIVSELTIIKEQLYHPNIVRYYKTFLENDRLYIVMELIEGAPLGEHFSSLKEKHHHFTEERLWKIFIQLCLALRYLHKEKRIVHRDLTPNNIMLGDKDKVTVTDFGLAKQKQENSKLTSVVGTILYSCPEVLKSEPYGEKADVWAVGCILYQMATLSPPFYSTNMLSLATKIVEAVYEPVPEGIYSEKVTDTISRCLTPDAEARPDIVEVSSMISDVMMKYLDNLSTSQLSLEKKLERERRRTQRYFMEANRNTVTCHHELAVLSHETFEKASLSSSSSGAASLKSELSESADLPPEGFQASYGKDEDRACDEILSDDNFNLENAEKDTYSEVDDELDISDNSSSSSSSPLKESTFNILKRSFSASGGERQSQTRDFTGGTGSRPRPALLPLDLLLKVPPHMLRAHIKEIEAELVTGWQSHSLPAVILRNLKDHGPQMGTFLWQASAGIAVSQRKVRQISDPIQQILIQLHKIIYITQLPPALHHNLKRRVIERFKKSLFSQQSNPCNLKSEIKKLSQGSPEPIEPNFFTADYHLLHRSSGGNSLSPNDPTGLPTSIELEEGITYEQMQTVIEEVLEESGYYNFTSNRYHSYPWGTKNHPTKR
Sequence of kinases (468) (Homo sapiens, UniProt Q16288) (Q16288 32-839): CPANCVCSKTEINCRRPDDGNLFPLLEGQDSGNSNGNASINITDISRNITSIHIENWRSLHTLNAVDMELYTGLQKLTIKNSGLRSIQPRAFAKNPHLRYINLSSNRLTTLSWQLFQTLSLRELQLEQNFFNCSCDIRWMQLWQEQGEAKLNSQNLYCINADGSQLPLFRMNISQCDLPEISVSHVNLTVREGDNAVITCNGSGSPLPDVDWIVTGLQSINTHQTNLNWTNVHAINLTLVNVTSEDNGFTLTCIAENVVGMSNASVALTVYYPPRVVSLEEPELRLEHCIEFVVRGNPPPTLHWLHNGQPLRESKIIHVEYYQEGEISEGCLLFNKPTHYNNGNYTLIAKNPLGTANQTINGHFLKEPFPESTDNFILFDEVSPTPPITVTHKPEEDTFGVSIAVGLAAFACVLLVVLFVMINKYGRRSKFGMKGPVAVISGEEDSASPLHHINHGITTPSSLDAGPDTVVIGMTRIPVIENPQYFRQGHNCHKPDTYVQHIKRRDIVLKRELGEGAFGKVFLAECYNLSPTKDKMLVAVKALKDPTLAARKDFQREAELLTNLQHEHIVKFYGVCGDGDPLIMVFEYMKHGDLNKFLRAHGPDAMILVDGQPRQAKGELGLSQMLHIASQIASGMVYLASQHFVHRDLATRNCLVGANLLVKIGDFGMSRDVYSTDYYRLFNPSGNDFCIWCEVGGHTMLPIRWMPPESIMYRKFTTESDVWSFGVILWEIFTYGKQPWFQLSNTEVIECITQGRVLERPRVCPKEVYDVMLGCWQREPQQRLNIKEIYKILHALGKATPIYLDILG
Sequence of kinases (468) (Homo sapiens, UniProt O75716) (O75716 whole entry): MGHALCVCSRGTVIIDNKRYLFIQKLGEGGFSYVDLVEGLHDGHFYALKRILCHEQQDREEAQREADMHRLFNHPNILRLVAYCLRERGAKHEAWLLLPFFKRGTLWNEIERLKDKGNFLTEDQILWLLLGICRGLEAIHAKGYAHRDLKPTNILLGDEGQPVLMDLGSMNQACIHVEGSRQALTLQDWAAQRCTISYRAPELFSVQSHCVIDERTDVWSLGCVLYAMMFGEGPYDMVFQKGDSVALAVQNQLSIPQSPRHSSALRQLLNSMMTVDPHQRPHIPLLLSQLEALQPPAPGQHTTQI

SMILES: C[C@H]1C[C@@H](O)CN(c2ncc(Cl)c(Nc3ccc4c(c3)c3c(c(=O)n4C)OCC(F)(F)[C@H](C4CC4)N3)n2)C1 [CCT373566_9A]
- Percent Control (kinases (468) [1]): 100%
- Percent Control (kinases (468) [2]): 100%
- Percent Control (kinases (468) [3]): 93%
- Percent Control (kinases (468) [4]): 98%
- Percent Control (kinases (468) [5]): 99%
- Percent Control (kinases (468) [6]): 88%
- Percent Control (kinases (468) [7]): 79%
- Percent Control (kinases (468) [8]): 100%
- Percent Control (kinases (468) [9]): 99%
- Percent Control (kinases (468) [10]): 92%
- Percent Control (kinases (468) [11]): 90%
- Percent Control (kinases (468) [12]): 100%
- Percent Control (kinases (468) [13]; kinase RSK1(Kin.Dom.1-N-terminal) (Entrez RPS6KA1)): 95%
- Percent Control (kinases (468) [13]; kinase RSK1(Kin.Dom.2-C-terminal) (Entrez RPS6KA1)): 90%
- Percent Control (kinases (468) [14]): 89%
- Percent Control (kinases (468) [15]): 93%
- Percent Control (kinases (468) [16]; kinase RPS6KA4(Kin.Dom.1-N-terminal) (Entrez RPS6KA4)): 96%
- Percent Control (kinases (468) [16]; kinase RPS6KA4(Kin.Dom.2-C-terminal) (Entrez RPS6KA4)): 100%
- Percent Control (kinases (468) [17]): 90%
- Percent Control (kinases (468) [18]): 100%
- Percent Control (kinases (468) [19]): 91%
- Percent Control (kinases (468) [20]): 100%
- Percent Control (kinases (468) [21]): 98%
- Percent Control (kinases (468) [22]): 93%
- Percent Control (kinases (468) [23]): 96%
- Percent Control (kinases (468) [24]): 84%
- Percent Control (kinases (468) [25]): 100%
- Percent Control (kinases (468) [26]): 99%
- Percent Control (kinases (468) [27]): 100%
- Percent Control (kinases (468) [28]): 96%
- Percent Control (kinases (468) [29]): 100%
- Percent Control (kinases (468) [30]): 94%
- Percent Control (kinases (468) [31]): 98%
- Percent Control (kinases (468) [32]): 100%
- Percent Control (kinases (468) [33]): 100%
